This passage reports IC50 results from patent US9034921B2, “Diphenylmethane derivatives as SGLT2 inhibitors” (GREEN CROSS CORPORATION, priority 2011, dated 2015).

The target of the assay is human SGLT2 (Homo sapiens (Human), UniProt P31639). As to the kind of experiment: Inhibitory effects on human SGLT2 activities (14C-AMG uptake, sodium-dependent glucose transport assay). Format: cell-based. As to conditions: CHO cells stably expressing hSGLT2, 37° C., 2 h, single determinations. The essentials: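 CHO cells stably expressing hSGLT2 were preincubated 10 min at 37 °C in choline (Na+-free) buffer, then exposed 2 h at 37 °C to compound in Na+ uptake buffer with 8 μM 14C-AMG and 1 mM unlabeled AMG. Radioactivity was scintillation counted; IC50 came from nonlinear regression.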
Chain of human SGLT2 (P31639 whole entry): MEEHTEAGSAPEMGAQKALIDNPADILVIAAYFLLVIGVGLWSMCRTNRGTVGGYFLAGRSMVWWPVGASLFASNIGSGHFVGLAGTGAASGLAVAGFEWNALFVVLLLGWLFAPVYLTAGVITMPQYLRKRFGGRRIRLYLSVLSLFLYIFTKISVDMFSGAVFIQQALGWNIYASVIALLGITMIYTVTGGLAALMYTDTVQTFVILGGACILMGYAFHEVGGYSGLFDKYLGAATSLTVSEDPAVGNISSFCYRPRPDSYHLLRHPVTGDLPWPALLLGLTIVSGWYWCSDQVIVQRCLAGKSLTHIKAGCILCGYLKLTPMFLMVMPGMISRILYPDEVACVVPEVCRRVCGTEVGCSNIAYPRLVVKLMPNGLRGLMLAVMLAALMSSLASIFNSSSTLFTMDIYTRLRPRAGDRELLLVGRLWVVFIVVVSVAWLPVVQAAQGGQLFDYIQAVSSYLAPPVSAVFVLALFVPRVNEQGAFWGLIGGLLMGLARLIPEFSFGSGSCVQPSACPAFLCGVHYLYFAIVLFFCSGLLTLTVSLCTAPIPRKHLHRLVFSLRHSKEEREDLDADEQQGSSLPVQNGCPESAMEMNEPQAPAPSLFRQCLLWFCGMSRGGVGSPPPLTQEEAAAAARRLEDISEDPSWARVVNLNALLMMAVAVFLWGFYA

SMILES strings stand for the structures.

Consider `CCc1ccc(C2OCc3ccc([C@@H]4O[C@H](CO)[C@@H](O)[C@H](O)[C@H]4O)cc32)cc1` (stereo partly drawn) [Example E099, (2S,3R,4R,5S,6R)-2-(3-(4-Ethylphenyl)-1,3-dihydroisobenzofuran-5-yl)-6-(hydroxymethyl)-tetrahydro-2H-pyran-3,4,5-triol], for which the half-maximal inhibitory concentration (IC50) (as a rule, the concentration that inhibits the measured activity by half) was determined as 56.2 nM.

In turn, `CSc1ccc(C2OCc3ccc([C@@H]4O[C@H](CO)[C@@H](O)[C@H](O)[C@H]4O)cc32)cc1` (stereo partly drawn) [Example E102, (2R,3S,4R,5R,6S)-2-(Hydroxymethyl)-6-(3-(4-(methylthio)phenyl)-1,3-dihydroisobenzofuran-5-yl)-tetrahydro-2H-pyran-3,4,5-triol] registered a half-inhibitory concentration (IC50) of 75.7 nM.

With `OC[C@H]1O[C@@H](c2cc(Cc3ccc4c(c3)OCCO4)c(Cl)c3c2OCCO3)[C@H](O)[C@@H](O)[C@@H]1O` [Example E103, (2S,3R,4R,5S,6R)-2-(8-Chloro-7-((2,3-dihydrobenzo[b][1,4]dioxin-6-yl)methyl)-2,3-dihydrobenzo[b][1,4]dioxin-5-yl)-6-(hydroxymethyl)tetrahydro-2H-pyran-3,4,5-triol], the IC50 worked out at 1.82 nM.

The compound `COc1ccc(Cc2cc([C@@H]3O[C@H](CO)[C@@H](O)[C@H](O)[C@H]3O)c3c(c2Cl)OCCO3)cc1` [Example E104, (2S,3R,4R,5S,6R)-2-(8-Chloro-7-(4-methoxybenzyl)-2,3-dihydrobenzo[b][1,4]dioxin-5-yl)-6-(hydroxymethyl)tetrahydro-2H-pyran-3,4,5-triol] yielded an IC50 of 2 nM.

In the case of `CCc1ccc(Cc2cc([C@@H]3O[C@H](CO)[C@@H](O)[C@H](O)[C@H]3O)c3c(c2Cl)OCCO3)cc1` [Example E105, (2S,3R,4R,5S,6R)-2-(8-Chloro-7-(4-ethylbenzyl)-2,3-dihydrobenzo[b][1,4]dioxin-5-yl)-6-(hydroxymethyl)tetrahydro-2H-pyran-3,4,5-triol], the IC50 was determined as 0.923 nM.

For the compound `OC[C@H]1O[C@@H](c2cc(Cc3ccc4c(c3)OCCO4)c(Cl)c3c2CCC3)[C@H](O)[C@@H](O)[C@@H]1O` [Example E106, (2S,3R,4R,5S,6R)-2-(7-Chloro-6-((2,3-dihydrobenzo[b][1,4]dioxin-6-yl)methyl)-2,3-dihydro-1H-inden-4-yl)-6-(hydroxymethyl)tetrahydro-2H-pyran-3,4,5-triol], the IC50 was found to be 0.616 nM.

The compound `Cc1c(Cc2ccc3c(c2)OCCO3)cc([C@@H]2O[C@H](CO)[C@@H](O)[C@H](O)[C@H]2O)c2c1CCC2` [Example E107, (2S,3R,4R,5S,6R)-2-(6-((2,3-Dihydrobenzo[b][1,4]dioxin-6-yl)methyl)-7-methyl-2,3-dihydro-1H-inden-4-yl)-6-(hydroxymethyl)tetrahydro-2H-pyran-3,4,5-triol] gave an IC50 of 0.86 nM.

On to `OC[C@H]1O[C@@H](c2cc(Cc3ccc4c(c3)OCCO4)c(C(F)F)c3c2CCC3)[C@H](O)[C@@H](O)[C@@H]1O` [Example E108, (2S,3R,4R,5S,6R)-2-(7-(Difluoromethyl)-6-((2,3-dihydrobenzo[b][1,4]dioxin-6-yl)methyl)-2,3-dihydro-1H-inden-4-yl)-6-(hydroxymethyl)tetrahydro-2H-pyran-3,4,5-triol], for which the concentration for half-maximal inhibition (IC50) stood at 1.26 nM.

`CCOc1ccc(Cc2cc([C@@H]3O[C@H](OC)[C@@H](O)[C@H](O)[C@H]3O)c(OC)cc2Cl)cc1` [Example E109, (2S,3R,4R,5S,6S)-2-(4-Chloro-5-(4-ethoxybenzyl)-2-methoxyphenyl)-6-methoxytetrahydro-2H-pyran-3,4,5-triol]: inhibition was half-maximal at 29.1 nM (IC50).

`C=CCOc1cc(Cl)c(Cc2ccc(OC)cc2)cc1[C@@H]1O[C@H](SC)[C@@H](O)[C@H](O)[C@H]1O` [Example E110, (2S,3R,4R,5S,6R)-2-(2-(Allyloxy)-4-chloro-5-(4-methoxybenzyl)phenyl)-6-(methylthio)tetrahydro-2H-pyran-3,4,5-triol]: the IC50 was 0.504 nM.

`CCOc1ccc(Cc2cc([C@@H]3O[C@H](SC)[C@@H](O)[C@H](O)[C@H]3O)c(OC)cc2Cl)cc1` [Example E111, (2S,3R,4R,5S,6R)-2-(4-Chloro-5-(4-ethoxybenzyl)-2-methoxyphenyl)-6-(methylthio)tetrahydro-2H-pyran-3,4,5-triol] had an IC50 of 0.783 nM.

For the compound `CCOc1ccc(Cc2cc([C@@H]3O[C@H](S(C)(=O)=O)[C@@H](O)[C@H](O)[C@H]3O)c(OC)cc2Cl)cc1` [Example E112, (2S,3R,4R,5S,6R)-2-(4-Chloro-5-(4-ethoxybenzyl)-2-methoxyphenyl)-6-(methylsulfonyl)tetrahydro-2H-pyran-3,4,5-triol], the concentration for half-maximal inhibition (IC50) turned out to be 7.44 nM.

In the case of `COc1cc([C@@H]2O[C@H](SC)[C@@H](O)[C@H](O)[C@H]2O)cc(Cc2ccc3c(c2)OCCO3)c1Cl` [Example E113, (2S,3R,4R,5S,6R)-2-(4-Chloro-3-((2,3-dihydrobenzo[b][1,4]dioxin-6-yl)methyl)-5-methoxyphenyl)-6-(methylthio)tetrahydro-2H-pyran-3,4,5-triol], the IC50 amounted to 0.551 nM.

Turning to `CCOc1ccc(Cc2cc([C@@H]3O[C@H](SC)[C@@H](O)[C@H](O)[C@H]3O)cc(OC)c2Cl)cc1` [Example E114, (2S,3R,4R,5S,6R)-2-(4-Chloro-3-(4-ethoxybenzyl)-5-methoxyphenyl)-6-(methylthio)tetrahydro-2H-pyran-3,4,5-triol], the 50% inhibitory concentration (IC50) was 0.308 nM. Compared with the last compound, the IC50 is about 1.8-fold lower.

Compound `C=CCOc1cc(Cl)c(Cc2ccc(OC)cc2)cc1[C@@H]1O[C@H](OC)[C@@H](O)[C@H](O)[C@H]1O` [Example E115, (2S,3R,4R,5S,6S)-2-(2-(Allyloxy)-4-chloro-5-(4-methoxybenzyl)phenyl)-6-methoxytetrahydro-2H-pyran-3,4,5-triol] gave an IC50 of 7.06 nM.

Compound `CN(C)c1ccc(Cc2cc([C@@H]3O[C@H](CO)[C@@H](O)[C@H](O)[C@H]3O)c3c(c2Cl)CCC3)cc1` [Example E116, (2S,3R,4R,5S,6R)-2-(7-Chloro-6-(4-(dimethylamino)benzyl)-2,3-dihydro-1H-inden-4-yl)-6-(hydroxymethyl)tetrahydro-2H-pyran-3,4,5-triol] displayed a concentration for half-maximal inhibition (IC50) of 0.475 nM. Compared with the last compound, the IC50 is about 15-fold lower.

Consider `C=Cc1ccc(Cc2cc([C@@H]3O[C@H](CO)[C@@H](O)[C@H](O)[C@H]3O)c3c(c2Cl)CCC3)cc1` [Example E117, (2S,3R,4R,5S,6R)-2-(7-Chloro-6-(4-vinylbenzyl)-2,3-dihydro-1H-inden-4-yl)-6-(hydroxymethyl)tetrahydro-2H-pyran-3,4,5-triol], for which the IC50 is 0.742 nM. This IC50 is about 1.6-fold higher than that of the compound before.

The compound `OC[C@H]1O[C@@H](c2cc(Cc3ccc(C4CC4)cc3)c(Cl)c3c2CCC3)[C@H](O)[C@@H](O)[C@@H]1O` [Example E118, (2S,3R,4R,5S,6R)-2-(7-Chloro-6-(4-cyclopropylbenzyl)-2,3-dihydro-1H-inden-4-yl)-6-(hydroxymethyl)tetrahydro-2H-pyran-3,4,5-triol] registered an IC50 of 0.678 nM.

In the case of `C=Cc1ccc(Cc2cc([C@@H]3O[C@H](CO)[C@@H](O)[C@H](O)[C@H]3O)c3c(c2Cl)CCO3)cc1` [Example E119, (2S,3R,4R,5S,6R)-2-(4-Chloro-5-(4-vinylbenzyl)-2,3-dihydrobenzofuran-7-yl)-6-(hydroxymethyl)tetrahydro-2H-pyran-3,4,5-triol], the 50% inhibitory concentration (IC50) worked out at 1.38 nM.

Regarding `OC[C@H]1O[C@@H](c2cc(Cc3ccc(C4CC4)cc3)c(Cl)c3c2OCC3)[C@H](O)[C@@H](O)[C@@H]1O` [Example E120, (2S,3R,4R,5S,6R)-2-(4-Chloro-5-(4-cyclopropylbenzyl)-2,3-dihydrobenzofuran-7-yl)-6-(hydroxymethyl)tetrahydro-2H-pyran-3,4,5-triol], the IC50 was found to be 1.09 nM.

`OC[C@H]1O[C@@H](c2cc(Cc3ccc(C4CC4)cc3)c(Cl)c3c2OCCC3)[C@H](O)[C@@H](O)[C@@H]1O` [Example E121, (2S,3R,4R,5S,6R)-2-(5-Chloro-6-(4-cyclopropylbenzyl)chroman-8-yl)-6-(hydroxymethyl)tetrahydro-2H-pyran-3,4,5-triol] displayed a 50% inhibitory concentration (IC50) of 0.851 nM.

Compound `OC[C@H]1O[C@@H](c2cc(Cc3ccc(C(F)(F)F)cc3)c(Cl)c3c2OCC3)[C@H](O)[C@@H](O)[C@@H]1O` [Example E122, (2S,3R,4R,5S,6R)-2-(4-Chloro-5-(4-(trifluoromethyl)benzyl)-2,3-dihydrobenzofuran-7-yl)-6-(hydroxymethyl)tetrahydro-2H-pyran-3,4,5-triol] returned a concentration for half-maximal inhibition (IC50) of 1.97 nM. This IC50 is about 2.3-fold higher than that of the compound before.

`OC[C@H]1O[C@@H](c2cc(Cc3ccc(Cl)cc3)c(Cl)c3c2OCC3)[C@H](O)[C@@H](O)[C@@H]1O` [Example E123, (2S,3R,4R,5S,6R)-2-(4-Chloro-5-(4-chlorobenzyl)-2,3-dihydrobenzofuran-7-yl)-6-(hydroxymethyl)tetrahydro-2H-pyran-3,4,5-triol]: the IC50 amounted to 1.82 nM.

As for `OC[C@H]1O[C@@H](c2cc(Cc3ccc(C(F)(F)F)cc3)c(Cl)c3c2CCO3)[C@H](O)[C@@H](O)[C@@H]1O` [Example E124, (2S,3R,4R,5S,6R)-2-(7-Chloro-6-(4-(trifluoromethyl)benzyl)-2,3-dihydrobenzofuran-4-yl)-6-(hydroxymethyl)tetrahydro-2H-pyran-3,4,5-triol], 1.25 nM corresponded to half-maximal inhibition (IC50).

As to `CCOc1ccc(Cc2cc([C@@H]3O[C@H](C)[C@@H](O)[C@H](O)[C@H]3O)c3c(c2Cl)OCC3)cc1` [Example E125, (2S,3R,4S,5S,6R)-2-(7-Chloro-6-(4-ethoxybenzyl)-2,3-dihydrobenzofuran-4-yl)-6-methyltetrahydro-2H-pyran-3,4,5-triol], half-maximal inhibition (IC50) was put at 0.728 nM.

On to `CCOc1ccc(Cc2cc([C@@H]3O[C@H](CF)[C@@H](O)[C@H](O)[C@H]3O)c3c(c2Cl)OCC3)cc1` [Example E126, (2S,3R,4R,5S,6S)-2-(7-Chloro-6-(4-ethoxybenzyl)-2,3-dihydrobenzofuran-4-yl)-6-(fluoromethyl)tetrahydro-2H-pyran-3,4,5-triol], for which the half-maximal inhibitory concentration (IC50) was determined as 3.21 nM.

Compound `CCOc1ccc(Cc2cc([C@@H]3O[C@H](C(C)O)[C@@H](O)[C@H](O)[C@H]3O)c3c(c2Cl)OCC3)cc1` (stereo partly drawn) [Example E127, (2S,3R,4R,5S,6R)-2-(7-Chloro-6-(4-ethoxybenzyl)-2,3-dihydrobenzofuran-4-yl)-6-(1-hydroxyethyl)tetrahydro-2H-pyran-3,4,5-triol] displayed an IC50 of 1.35 nM.
